According to PubChem BioAssay (NCI):
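Exposure lasted 48 hours, with cells grown in 96-well plates and compounds tested at five concentrations. TGI: concentration producing complete growth inhibition.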

What was measured:
Assay in all cases: growth of human tumour cells (NCI), 48 h
[1] = test system: SF-268 CNS
[2] = test system: BT-549 breast
[3] = test system: SNB-19 CNS
[4] = test system: NCI/ADR-RES ovarian
[5] = test system: SK-MEL-28 melanoma
[6] = test system: OVCAR-4 ovarian
[7] = test system: K-562 leukemia
[8] = test system: MDA-MB-435
[9] = test system: OVCAR-3 ovarian
[10] = test system: A549 NSCLC
[11] = test system: SW-620 colon
[12] = test system: UO-31 renal
[13] = test system: NCI-H23 lung
[14] = test system: MDA-MB-231 breast
[15] = test system: LOX IMVI melanoma
[16] = test system: HS 578T breast
[17] = test system: U251 CNS
[18] = test system: NCI-H226 lung
[19] = test system: SR leukemia
[20] = test system: SK-MEL-2 melanoma
[21] = test system: A498 renal
[22] = test system: SF-295 CNS
[23] = test system: COLO 205 colon
[24] = test system: MCF7 breast
[25] = test system: UACC-62 melanoma
[26] = test system: HCC-2998 colon
[27] = test system: ACHN renal
[28] = test system: T-47D breast
[29] = test system: HCT-15 colon
[30] = test system: PC-3 prostate
[31] = test system: SF-539 CNS
[32] = test system: M14 melanoma
[33] = test system: RXF 393 renal
[34] = test system: 786-0 renal
[35] = test system: EKVX NSCLC
[36] = test system: OVCAR-8 ovarian
[37] = test system: MOLT-4 leukemia
[38] = test system: OVCAR-5 ovarian
[39] = test system: DU-145 prostate
[40] = test system: KM12 colon
[41] = test system: NCI-H522 lung
[42] = test system: MDA-N
[43] = test system: CCRF-CEM leukemia
[44] = test system: HL-60(TB) leukemia
[45] = test system: IGROV1 ovarian
[46] = test system: SN12C renal
[47] = test system: TK-10 renal
[48] = test system: HT29 colon
[49] = test system: SNB-75 CNS
[50] = test system: HOP-62 NSCLC
[51] = test system: SK-MEL-5 melanoma
[52] = test system: MALME-3M melanoma
[53] = test system: HCT-116 colon
[54] = test system: CAKI-1 renal
[55] = test system: UACC-257 melanoma
[56] = test system: HOP-92 NSCLC
[57] = test system: SK-OV-3 ovarian
[58] = test system: NCI-H460 lung
[59] = test system: RPMI-8226 leukemia

CC1=NC2(CCCCC2)N(Cl)C(=O)C1SC#N (stereo not given)
TGI [1]: 33.5 µM
TGI [2]: 28.5 µM
TGI [3]: 49.9 µM
TGI [4]: 56.2 µM
TGI [5]: 34.9 µM
TGI [6]: 46.2 µM
TGI [7]: 41.4 µM
TGI [8]: 37.7 µM
TGI [9]: 35.2 µM
TGI [10]: 24.8 µM
TGI [11]: 62.6 µM
TGI [12]: 32.9 µM
TGI [13]: 58.9 µM
TGI [14]: 36.5 µM
TGI [15]: 35.4 µM
TGI [16]: > 100 µM
TGI [17]: 37.4 µM
TGI [18]: 40.1 µM
TGI [19]: > 100 µM
TGI [20]: 48.2 µM
TGI [21]: > 100 µM
TGI [22]: 36.1 µM
TGI [23]: > 100 µM
TGI [24]: 48.9 µM
TGI [25]: 27.2 µM
TGI [26]: 42 µM
TGI [27]: 31.6 µM
TGI [28]: 62.7 µM
TGI [29]: 66.6 µM
TGI [30]: 32.1 µM
TGI [31]: 35.9 µM
TGI [32]: 34.4 µM
TGI [33]: 32.3 µM
TGI [34]: 31.9 µM
TGI [35]: 31.9 µM
TGI [36]: 32.7 µM
TGI [37]: 23.7 µM
TGI [38]: 38.6 µM
TGI [39]: > 100 µM
TGI [40]: 42.6 µM
TGI [41]: 38.8 µM
TGI [42]: 32.2 µM
TGI [43]: 12.8 µM
TGI [44]: > 100 µM
TGI [45]: 34.4 µM
TGI [46]: 36.5 µM
TGI [47]: 35.1 µM
TGI [48]: 46.4 µM
TGI [49]: 44.5 µM
TGI [50]: 47.8 µM
TGI [51]: 39.8 µM
TGI [52]: 41.9 µM

C/C=C1\CN2CCC34c5ccccc5N(C)C35OCC4(C(=O)OC)C1CC25 (stereo not given)
TGI [1]: > 100 µM
TGI [2]: > 100 µM
TGI [53]: > 100 µM
TGI [3]: > 100 µM
TGI [54]: > 100 µM
TGI [5]: > 100 µM
TGI [6]: > 100 µM
TGI [55]: > 100 µM
TGI [7]: > 100 µM
TGI [8]: > 100 µM
TGI [56]: > 100 µM
TGI [9]: > 100 µM
TGI [57]: > 100 µM
TGI [10]: > 100 µM
TGI [11]: > 100 µM
TGI [12]: > 100 µM
TGI [13]: > 100 µM
TGI [14]: > 100 µM
TGI [15]: 58.3 µM
TGI [16]: > 100 µM
TGI [17]: > 100 µM
TGI [19]: > 100 µM
TGI [20]: > 100 µM
TGI [58]: 64.8 µM
TGI [21]: > 100 µM
TGI [22]: > 100 µM
TGI [23]: 31.5 µM
TGI [24]: > 100 µM
TGI [25]: > 100 µM
TGI [26]: 29.1 µM
TGI [27]: > 100 µM
TGI [28]: 75.7 µM
TGI [29]: > 100 µM
TGI [59]: > 100 µM
TGI [30]: > 100 µM
TGI [31]: > 100 µM
TGI [32]: 45.4 µM
TGI [34]: > 100 µM
TGI [35]: > 100 µM
TGI [37]: > 100 µM
TGI [38]: > 100 µM
TGI [39]: > 100 µM
TGI [40]: > 100 µM
TGI [41]: > 100 µM
TGI [42]: > 100 µM
TGI [43]: > 100 µM
TGI [44]: 78.3 µM
TGI [45]: > 100 µM
TGI [46]: > 100 µM
TGI [47]: > 100 µM
TGI [49]: > 100 µM
TGI [50]: > 100 µM
TGI [51]: 33.5 µM
